Patent publication US20240182461A1, “SELECTIVE ANGIOTENSIN II RECEPTOR LIGANDS” (priority 2021, published 2024)
Where two headings read alike, the source gives them in different places.

Tests used:
[1] = target: T1, human recombinant AT2 receptor (Homo sapiens, UniProt P50052); test: Radioligand binding to AT2 receptor (Eurofins radiometric scintillation assay); conditions: ligand 125I CGP 42112A; for IC50: 1, 10, 100 and 1000 nM, read-out: AT2 GraFit IC50; for Ki: seven-point dose-response curve, read-out: AT2R Ki
T1 construct: Eurofins (protocol only) ITEM26
T1 sequence (P50052 1-363): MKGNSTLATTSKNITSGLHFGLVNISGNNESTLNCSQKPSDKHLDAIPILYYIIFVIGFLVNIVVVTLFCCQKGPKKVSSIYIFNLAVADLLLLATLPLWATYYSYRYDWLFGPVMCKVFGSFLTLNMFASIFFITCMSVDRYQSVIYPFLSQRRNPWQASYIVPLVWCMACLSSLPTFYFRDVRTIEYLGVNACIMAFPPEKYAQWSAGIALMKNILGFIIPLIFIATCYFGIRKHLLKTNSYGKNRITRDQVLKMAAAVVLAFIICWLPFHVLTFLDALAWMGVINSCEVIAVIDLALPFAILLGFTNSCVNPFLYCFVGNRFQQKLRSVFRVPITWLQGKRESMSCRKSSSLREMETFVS

[2] = target: T2, human recombinant AT1 receptor (Homo sapiens, UniProt P30556); test: Radioligand binding to AT1 receptor (Eurofins radiometric scintillation assay); conditions: 1 and 10 μM; ligand 125I(sar1,Ile8)-AT-II
T2 construct: Eurofins (protocol only) ITEM24
T2 sequence (P30556 1-359): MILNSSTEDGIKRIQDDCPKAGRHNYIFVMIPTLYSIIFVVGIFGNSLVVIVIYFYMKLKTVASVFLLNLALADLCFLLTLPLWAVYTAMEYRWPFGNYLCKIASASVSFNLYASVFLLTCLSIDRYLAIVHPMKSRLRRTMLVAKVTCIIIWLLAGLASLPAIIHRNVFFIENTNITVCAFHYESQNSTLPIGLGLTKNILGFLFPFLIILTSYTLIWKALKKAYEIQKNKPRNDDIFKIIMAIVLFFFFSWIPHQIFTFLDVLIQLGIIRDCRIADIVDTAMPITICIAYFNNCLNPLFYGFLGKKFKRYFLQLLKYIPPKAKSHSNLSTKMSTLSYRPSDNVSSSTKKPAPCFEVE

[3] = Metabolic stability in pooled human liver microsomes; assay type: in vitro ADME; conditions: human liver microsomes 0.5 mg/mL, 1 μM compound, 37° C.
CYP1A = target: T3, CYP1A (Homo sapiens, UniProt P05177); test: CYP inhibition in human liver microsomes, CYP1A; assay type: in vitro ADME; conditions: probe phenacetin, substrate phenacetin, read-out: CYP1A Inh %
T3 construct: incubated with human liver microsomes; from tissue; host or cells: human liver microsomes

CYP2B6 = target: T4, CYP2B6 (Homo sapiens, UniProt P20813); test: CYP inhibition in human liver microsomes, CYP2B6; assay type: in vitro ADME; conditions: probe bupropion, substrate bupropion, read-out: CYP2B6 Inh %
T4 construct: incubated with human liver microsomes; from tissue; host or cells: human liver microsomes
T4 sequence (P20813 1-491): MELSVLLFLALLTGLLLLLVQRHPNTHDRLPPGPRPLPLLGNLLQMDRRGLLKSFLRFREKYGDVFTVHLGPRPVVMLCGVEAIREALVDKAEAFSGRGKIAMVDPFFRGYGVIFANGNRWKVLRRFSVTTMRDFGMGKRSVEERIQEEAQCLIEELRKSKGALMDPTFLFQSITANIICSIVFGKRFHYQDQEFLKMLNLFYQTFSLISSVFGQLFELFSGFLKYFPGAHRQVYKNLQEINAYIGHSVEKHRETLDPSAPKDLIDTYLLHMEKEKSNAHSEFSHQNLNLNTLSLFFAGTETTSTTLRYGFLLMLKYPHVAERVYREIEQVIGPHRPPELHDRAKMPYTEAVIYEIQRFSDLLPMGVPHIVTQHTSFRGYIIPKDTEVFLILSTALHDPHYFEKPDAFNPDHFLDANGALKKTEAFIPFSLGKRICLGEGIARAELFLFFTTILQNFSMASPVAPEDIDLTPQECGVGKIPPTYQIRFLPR

CYP2C19 = target: T5, CYP2C19 (Homo sapiens, UniProt P33261); test: CYP inhibition in human liver microsomes, CYP2C19; assay type: in vitro ADME; conditions: probe omeprazole, substrate omeprazole, read-out: CYP2C19 Inh %
T5 construct: incubated with human liver microsomes; from tissue; host or cells: human liver microsomes

CYP2C8 = target: T6, CYP2C8 (Homo sapiens, UniProt P10632); test: CYP inhibition in human liver microsomes, CYP2C8; assay type: in vitro ADME; conditions: probe paclitaxel and amodiaquine, substrates paclitaxel and amodiaquine, read-out: CYP2C8 Inh %
T6 construct: incubated with human liver microsomes; from tissue; host or cells: human liver microsomes
T6 sequence (P10632 1-490): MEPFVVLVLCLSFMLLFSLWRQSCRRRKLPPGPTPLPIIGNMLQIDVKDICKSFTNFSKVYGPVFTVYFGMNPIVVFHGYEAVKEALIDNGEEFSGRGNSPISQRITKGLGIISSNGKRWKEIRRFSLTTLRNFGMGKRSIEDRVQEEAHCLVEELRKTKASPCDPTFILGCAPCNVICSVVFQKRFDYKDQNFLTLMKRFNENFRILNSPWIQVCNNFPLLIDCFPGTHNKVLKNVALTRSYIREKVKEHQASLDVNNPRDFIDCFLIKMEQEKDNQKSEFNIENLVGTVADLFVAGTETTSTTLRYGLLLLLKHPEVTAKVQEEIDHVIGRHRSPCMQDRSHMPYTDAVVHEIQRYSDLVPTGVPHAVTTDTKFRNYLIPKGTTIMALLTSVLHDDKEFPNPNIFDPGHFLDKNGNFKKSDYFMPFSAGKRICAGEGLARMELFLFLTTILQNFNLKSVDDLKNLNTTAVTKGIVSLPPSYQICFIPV

CYP2D6 = target: T7, CYP2D6 (Homo sapiens, UniProt P10635); test: CYP inhibition in human liver microsomes, CYP2D6; assay type: in vitro ADME; conditions: probe dextromethorphan, substrate dextromethorphan, read-out: CYP2D6 Inh %
T7 construct: incubated with human liver microsomes; from tissue; host or cells: human liver microsomes

CYP3A4&5 = test: CYP inhibition in human liver microsomes, CYP3A4&5 testosterone; assay type: in vitro ADME; conditions: probe testosterone, substrate testosterone, read-out: CYP3A4&5 testosterone Inh %
CYP2C9 [4] = target: T8, CYP2C9 (Homo sapiens, UniProt P11712); test: CYP inhibition in human liver microsomes, CYP2C9; assay type: in vitro ADME; parameters: incubated with human liver microsomes; from tissue; host or cells: human liver microsomes; conditions: probe diclofenac, substrate diclofenac, read-out: CYP2C9 Inh %
CYP3A4 [5] = target: T9, CYP3A4 (Homo sapiens, UniProt P08684); test: CYP inhibition in human liver microsomes, CYP3A4 midazolam; assay type: in vitro ADME; parameters: incubated with human liver microsomes; from tissue; host or cells: human liver microsomes; conditions: probe midazolam, substrate midazolam, read-out: CYP3A4 midazolam Inh %
CYP2C9 [6] = target: T8, CYP2C9; test: CYP inhibition of C21 found during development; assay type: in vitro ADME
CYP3A4 [7] = target: T9, CYP3A4; test: CYP inhibition of C21 found during development; assay type: in vitro ADME
[8] = Metabolic hydrolysis of C21 found during development; assay type: in vitro ADME
[9] = with 1 mM NADPH, read-out: T1/2, + NaDPH
[10] = without NADPH, read-out: T1/2, no NaDPH

T9 sequence (P08684 whole entry): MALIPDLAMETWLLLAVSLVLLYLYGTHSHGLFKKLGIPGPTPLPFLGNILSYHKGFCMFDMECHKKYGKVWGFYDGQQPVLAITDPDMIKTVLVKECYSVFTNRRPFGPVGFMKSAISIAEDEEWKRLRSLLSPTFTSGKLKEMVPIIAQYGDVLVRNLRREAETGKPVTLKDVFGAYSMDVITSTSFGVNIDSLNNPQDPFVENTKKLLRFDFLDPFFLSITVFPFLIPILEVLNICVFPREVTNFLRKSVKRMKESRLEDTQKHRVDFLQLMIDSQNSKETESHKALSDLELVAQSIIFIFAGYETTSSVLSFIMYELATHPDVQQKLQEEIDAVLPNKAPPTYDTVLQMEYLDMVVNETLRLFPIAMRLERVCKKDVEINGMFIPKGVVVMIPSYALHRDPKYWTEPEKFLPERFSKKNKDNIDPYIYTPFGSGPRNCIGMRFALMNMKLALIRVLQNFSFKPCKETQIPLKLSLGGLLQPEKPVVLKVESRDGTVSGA
T8 sequence (P11712 whole entry): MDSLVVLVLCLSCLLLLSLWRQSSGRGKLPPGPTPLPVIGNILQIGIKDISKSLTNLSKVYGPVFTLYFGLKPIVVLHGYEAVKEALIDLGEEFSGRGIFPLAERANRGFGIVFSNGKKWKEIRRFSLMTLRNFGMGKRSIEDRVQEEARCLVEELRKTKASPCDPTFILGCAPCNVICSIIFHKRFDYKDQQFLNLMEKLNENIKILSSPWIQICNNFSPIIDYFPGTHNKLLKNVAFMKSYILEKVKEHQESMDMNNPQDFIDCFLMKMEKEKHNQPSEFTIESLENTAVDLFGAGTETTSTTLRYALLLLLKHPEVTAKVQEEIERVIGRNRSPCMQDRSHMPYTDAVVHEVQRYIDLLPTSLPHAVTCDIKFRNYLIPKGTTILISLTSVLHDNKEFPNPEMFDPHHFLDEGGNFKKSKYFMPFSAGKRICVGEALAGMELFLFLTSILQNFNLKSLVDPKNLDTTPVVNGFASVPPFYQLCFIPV
T7 sequence (P10635 whole entry): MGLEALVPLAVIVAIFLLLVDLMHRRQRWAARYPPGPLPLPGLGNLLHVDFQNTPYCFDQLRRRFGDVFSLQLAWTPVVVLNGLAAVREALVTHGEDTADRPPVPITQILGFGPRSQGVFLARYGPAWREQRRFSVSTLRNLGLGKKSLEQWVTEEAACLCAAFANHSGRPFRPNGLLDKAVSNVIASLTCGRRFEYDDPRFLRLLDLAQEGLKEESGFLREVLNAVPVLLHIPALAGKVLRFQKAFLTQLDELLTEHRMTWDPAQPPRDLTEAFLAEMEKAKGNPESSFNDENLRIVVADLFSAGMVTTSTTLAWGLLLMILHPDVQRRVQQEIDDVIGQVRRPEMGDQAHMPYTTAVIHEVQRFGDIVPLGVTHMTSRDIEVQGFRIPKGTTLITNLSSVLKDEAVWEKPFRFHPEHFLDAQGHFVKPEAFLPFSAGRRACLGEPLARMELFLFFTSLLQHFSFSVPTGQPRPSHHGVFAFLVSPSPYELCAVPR
T3 sequence (P05177 whole entry): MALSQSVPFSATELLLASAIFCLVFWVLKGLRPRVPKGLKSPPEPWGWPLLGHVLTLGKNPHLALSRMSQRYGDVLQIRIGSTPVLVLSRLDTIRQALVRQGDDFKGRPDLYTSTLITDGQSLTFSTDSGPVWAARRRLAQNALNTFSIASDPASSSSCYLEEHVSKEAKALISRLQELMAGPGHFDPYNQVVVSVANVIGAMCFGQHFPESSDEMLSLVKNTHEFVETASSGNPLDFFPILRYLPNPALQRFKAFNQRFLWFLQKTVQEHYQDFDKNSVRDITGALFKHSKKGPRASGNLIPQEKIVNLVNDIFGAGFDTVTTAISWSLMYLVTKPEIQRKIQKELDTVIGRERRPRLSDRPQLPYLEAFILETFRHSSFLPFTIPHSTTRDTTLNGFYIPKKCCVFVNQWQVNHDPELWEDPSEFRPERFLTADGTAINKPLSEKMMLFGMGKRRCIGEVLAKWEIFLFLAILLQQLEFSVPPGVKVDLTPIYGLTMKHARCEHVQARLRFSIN
T5 sequence (P33261 whole entry): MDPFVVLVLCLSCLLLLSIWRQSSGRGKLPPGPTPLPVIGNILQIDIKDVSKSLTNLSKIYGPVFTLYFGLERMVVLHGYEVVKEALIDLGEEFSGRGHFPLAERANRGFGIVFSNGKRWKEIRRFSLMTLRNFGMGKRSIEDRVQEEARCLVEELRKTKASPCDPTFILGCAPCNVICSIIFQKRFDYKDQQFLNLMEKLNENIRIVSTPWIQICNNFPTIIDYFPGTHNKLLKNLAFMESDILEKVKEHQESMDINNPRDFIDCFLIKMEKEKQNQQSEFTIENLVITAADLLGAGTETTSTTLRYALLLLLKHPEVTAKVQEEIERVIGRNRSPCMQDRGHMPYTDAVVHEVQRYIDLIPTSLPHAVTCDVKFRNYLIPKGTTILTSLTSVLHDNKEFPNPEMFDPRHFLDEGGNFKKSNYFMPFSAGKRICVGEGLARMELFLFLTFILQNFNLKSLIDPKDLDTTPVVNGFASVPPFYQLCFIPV

Compound	IC50 [1]	Ki [1]	IC50 [2]	half-life at 1 μM [3, 9]	half-life at 1 μM [3, 10]	further results
CC(C)Cc1nc(-c2ccc(Cn3ccnc3C(C)(C)C)cc2)c(S(=O)(=O)NC(=O)NCc2cccs2)s1 [Example 1, 4-(4-((2-(tert-Butyl)-1H-imidazol-1-yl)methyl)phenyl)-2-isobutyl-N-((thiophen-2-ylmethyl)carbamoyl)thiazole-5-sulfonamide]	13 nM	6.5 nM	1350 nM			
COC(=O)NS(=O)(=O)c1ccc(CC(C)C)cc1-c1ccc(Cn2ccnc2C)cc1 [Example 18, Methyl (5-isobutyl-4′-((2-methyl-1H-imidazol-1-yl)methyl)-[1,1′-biphenyl]-2-yl)sulfonylcarbamate]	1.78 nM	0.93 nM		> 60 min	> 60 min	
CCCCOC(=O)NS(=O)(=O)c1sc(CC(C)C)cc1-c1ccc(Cn2ccnc2)cc1 [Example C21, N-butyloxycarbonyl-3-(4-imidazol-1-ylmethylphenyl)-5-isobutylthiophene-2-sulfon-amide]						inhibition of CYP 2C9 (CYP2C9 [6]): potent inhibitor; inhibition of CYP 3A4 (CYP3A4 [7]): potent inhibitor; metabolic hydrolysis [8]: rapidly hydrolysed to an inactive sulfonamide metabolite

Further compounds by falling IC50 [1], results first:

IC50 [1]	Ki [1]	IC50 [2]	half-life at 1 μM [3, 9]	half-life at 1 μM [3, 10]	Compound	further results
0.49 nM	0.25 nM	1200 nM	2 min	4 min	CCCCOC(=O)NS(=O)(=O)c1ccc(CC(C)C)cc1-c1ccc(Cn2ccnc2C(C)(C)C)c(F)c1 [Example 4, Butyl ((4′-((2-(tert-butyl)-1H-imidazol-1-yl)methyl)-3′-fluoro-5-isobutyl-[1,1′-biphenyl]-2-yl)sulfonyl)carbamate]	inhibition at 10 µM (CYP1A): -35.8%; inhibition at 10 µM (CYP2B6): 62.4%; inhibition at 10 µM (CYP2C19): 60.4%; inhibition at 10 µM (CYP2C8): 87.5%; inhibition at 10 µM (CYP2D6): 26.5%; inhibition at 10 µM (CYP3A4&5): 23.5%; inhibition at 10 µM (CYP2C9 [4]): 92.8%; inhibition at 10 µM (CYP3A4 [5]): 18.1%
0.43 nM	0.22 nM	4600 nM			CC(C)Cc1ccc(S(=O)(=O)NC(=O)NCc2ccccn2)c(-c2ccc(Cn3ccnc3C(C)(C)C)cc2)c1 [Example 2, 4′-((2-(tert-Butyl)-1H-imidazol-1-yl)methyl)-5-isobutyl-N-((pyridin-2-ylmethyl)carbamoyl)-[1,1′-biphenyl]-2-sulfonamide]	
0.274 nM	0.14 nM		> 60 min	> 60 min	CC(C)Cc1ccc(S(=O)(=O)NC(=O)OCCO)c(-c2ccc(Cn3ccnc3C(C)(C)C)c(F)c2)c1 [Example 17, 2-Hydroxyethyl (4′-((2-(tert-butyl)-1H-imidazol-1-yl)methyl)-3′-fluoro-5-isobutyl-[1,1′-biphenyl]-2-yl)sulfonylcarbamate]	
